Values joined by “and” are separate entries in the source; they are usually repeats but may differ in a detail not shown here. Equal values may be shown once. “Also recorded” adds a separate entry of the source. Read-outs that look alike come from different tables or passages of the source.
Columns and labels:
[1] = test system: Japanese patients with advanced solid tumors; experiment: Safety assessment: adverse events (CTCAE v 4.0), DLT/DLET, phase 1 dose escalation; format: in vivo, human
Experimental: The study consisted of 2 dose levels of crenigacestat (25 mg and 50 mg), administered orally TIW prior to a meal. A cycle was defined as 28 days. Patients were admitted to the investigational site for 4 weeks through the entire first cycle but were discharged and managed on an outpatient basis on or after day 15 upon investigator discretion. The planned duration of treatment was not fixed. Treatment continued until disease progression, development of unacceptable toxicity, or any other discontinuation criteria were met.
Data were evaluated on an ongoing basis until the tolerability of crenigacestat for 50 mg was confirmed. Safety data, in particular adverse events (AEs), were the primary criteria for dose escalation. Dose escalation was driven for each treatment combination using the 3 + 3 method. Transition of dose level (from 25 to 50 mg) proceeded if the frequency of dose-limiting toxicity (DLT) observed in cycle 1 was <33% of patients in the first dose level (25 mg). For DLTs, an evaluable patient was defined as a patient who received ≥75% of the planned dose in cycle 1 or a patient who experienced DLT in cycle 1.
Adverse events were collected throughout the study and coded using Medical Dictionary for Regulatory Activities (MedDRA) terms (Version 22.0). […]

[2] = test system: advanced solid tumors in Japanese patients; experiment: Efficacy assessment: tumor response (RECIST v1.1); format: in vivo, human
Experimental: Tumor response, including overall response rate, was measured using RECIST v1.1 [12] or the Response Assessment in Neuro-Oncology criteria for glioblastoma. Patient’s full extent of disease was also assessed via evaluation of performance status (ECOG). Where applicable, tumor measurements were performed by positron emission tomography response criteria of the European Organization for Research and Treatment of Cancer, as well as evaluation of tumor markers. To confirm objective responses, all lesions were radiologically assessed and the same radiologic method used at baseline and for the initial response determination was repeated at least 4 weeks following the initial observation of an objective response.

[3] = test system: non-Japanese patients with advanced or metastatic cancers; parameters: method as in PMID 30060061; details: TIW during a 28-day cycle; cited from earlier work
[4] = Pharmacokinetics: plasma concentrations by LC-MS/MS, noncompartmental analysis; format: in vivo; details: human; for AUC(0-inf) / Cmax / AUC(0-t): geometric mean (%CV); for AUC(0-t): read-out: AUC0–48
Experimental: All patients who received at least 1 dose of the study drug, and had sufficient samples collected, were included in the PK analysis. […] Plasma concentrations of crenigacestat were quantified using a validated liquid chromatography-tandem mass spectrometry (LC-MS/MS) assay. The PK parameters for crenigacestat were calculated by standard noncompartmental methods of analysis. The primary PK parameters for analysis were maximum plasma concentration (Cmax) and area under the plasma concentration-time curve (AUC) from time zero to infinity or over 1 dosing interval at steady state of crenigacestat.

[5] = po, 25 mg, Day 1 (Dose 1), 25 mg oral TIW
[6] = po, 25 mg, Day 22 (Dose 10), 25 mg oral TIW
[7] = po, 50 mg, Day 1 (Dose 1), 50 mg oral TIW
[8] = po, 50 mg, Day 22 (Dose 10), 50 mg oral TIW

For C[C@H](NC(=O)CCC(F)(F)F)C(=O)N[C@@H]1C(=O)N(CCO)c2ncccc2-c2ccccc21 [Crenigacestat, crenigacestat], the “Serious adverse events (SAEs), discontinuation or death due to an AE” value ([1]; both treatment arms, on treatment or within 30 days of discontinuation) was “no patients who reported any serious adverse events (SAEs), discontinued study treatment due to an adverse event (AEs) or SAE, or died due to an AE”, the “Recommended dose in Japanese patients” value ([1]; human, in vivo, po, 28 days) was 50 mg and the “Complete or partial response to the treatment” value ([2]; 25 mg and 50 mg oral TIW, all patients) was “None of the patients had a complete or partial response; also recorded: no partial or complete responses”. For the same compound, the “Best overall response: Complete response (CR)” value ([2]; 25 mg oral TIW (n = 4)) was 0 n (%), the “Best overall response: Partial response (PR)” value ([2]; 25 mg oral TIW (n = 4)) was 0 n (%) and the “Best overall response: Progressive disease” value ([2]; 25 mg oral TIW (n = 4)) was 4 (100.0) n (%). For the same compound, the “Disease control rate (CR/PR/SD)” value ([2]; 25 mg oral TIW (n = 4)) was 0 n (%), the “Best overall response: Complete response (CR)” value ([2]; 50 mg oral TIW (n = 7)) was 0 n (%) and the “Best overall response: Partial response (PR)” value ([2]; 50 mg oral TIW (n = 7)) was 0 n (%). For the same compound, the “Best overall response: Progressive disease” value ([2]; 50 mg oral TIW (n = 7)) was 6 (85.7) n (%), the “Disease control rate (CR/PR/SD)” value ([2]; 50 mg oral TIW (n = 7)) was 1 (14.3) n (%) and the “Duration of stable disease” value ([2]; one patient with a desmoid tumor, 50-mg treatment arm) was 22.5 months and 22.47 months. The Tumor size shrinkage ([2]; one patient with a desmoid tumor, 50-mg treatment arm, first 8 cycles) was 22.4% and 22.37%, the “Recommended phase 2 dose, monotherapy” value [3] was 50 mg and the AUC(0-inf) ([4]; Day 1 (Dose 1), 25 mg oral TIW) was 1480 ng·h/mL. The AUC(0-inf) ([4]; Day 1 (Dose 1), 50 mg oral TIW) was 3080 ng·h/mL, the Tmax ([4]; oral, postdose, each dose level, read-out: Median time to maximum plasma concentration (tmax)) was about 2 h and the half-life ([4]; po, 25 mg and 50 mg oral TIW, read-out: Mean t1/2 (converted)) was about 4 h. It also gave a Cmax [4, 5] of 324 ng/mL, an AUC(0-t) [4, 5] of 1480 ng·h/mL and a Tmax ([4]; po, 25 mg, Day 1 (Dose 1), 25 mg oral TIW, read-out: tmax, median (range)) of 1.92 h. For the same compound, the half-life ([4]; po, 25 mg, Day 1 (Dose 1), 25 mg oral TIW, read-out: t½, geometric mean (range) (converted)) was 3.64 h, the Cmax [4, 6] was 429 ng/mL and the AUC(0-t) [4, 6] was 2070 ng·h/mL. For the same compound, the Tmax ([4]; po, 25 mg, Day 22 (Dose 10), 25 mg oral TIW, read-out: tmax, median (range)) was 1.88 h, the half-life ([4]; po, 25 mg, Day 22 (Dose 10), 25 mg oral TIW, read-out: t½, geometric mean (range) (converted)) was 4.19 h and the Cmax [4, 7] was 670 ng/mL. For the same compound, the AUC(0-t) [4, 7] was 3080 ng·h/mL, the Tmax ([4]; po, 50 mg, Day 1 (Dose 1), 50 mg oral TIW, read-out: tmax, median (range)) was 1.93 h and the half-life ([4]; po, 50 mg, Day 1 (Dose 1), 50 mg oral TIW, read-out: t½, geometric mean (range) (converted)) was 3.89 h. The Cmax [4, 8] was 416 ng/mL, the AUC(0-t) [4, 8] was 2090 ng·h/mL and the Tmax ([4]; po, 50 mg, Day 22 (Dose 10), 50 mg oral TIW, read-out: tmax, median (range)) was 1.94 h. The half-life ([4]; po, 50 mg, Day 22 (Dose 10), 50 mg oral TIW, read-out: t½, geometric mean (range) (converted)) was 3.67 h.

— article PMC7960611, “A phase 1 study of crenigacestat (LY3039478), the Notch inhibitor, in Japanese patients with advanced solid tumors” (Investigational New Drugs, 2020)
